This note sets out measurements from paper PMC10955468 (Frontiers in Pharmacology, 2024).

Test [1] has as its target T1, TMEM206 (PAORAC/ASOR) (Homo sapiens, UniProt Q9H813).
T1 construct: gene PACC1; native full-length channel in HCT116 cells (whole-cell patch clamp); homo-trimer; current absent in TMEM206 knockout clones
The test is described as follows: whole-cell patch clamp, HCT116. Format: cell-based. The following applies: HCT-116; read-out: % residual current at 100 μM.

Test [2] addresses T1, TMEM206 (PAORAC/ASOR). The test is described as follows: whole-cell patch clamp, HCT116. It counts as cell-based. The following applies: HCT-116, read-out: % inhibition at 100 μM. (In patch-clamp work, channel activity is measured electrically.)

T1 sequence (Q9H813 whole entry): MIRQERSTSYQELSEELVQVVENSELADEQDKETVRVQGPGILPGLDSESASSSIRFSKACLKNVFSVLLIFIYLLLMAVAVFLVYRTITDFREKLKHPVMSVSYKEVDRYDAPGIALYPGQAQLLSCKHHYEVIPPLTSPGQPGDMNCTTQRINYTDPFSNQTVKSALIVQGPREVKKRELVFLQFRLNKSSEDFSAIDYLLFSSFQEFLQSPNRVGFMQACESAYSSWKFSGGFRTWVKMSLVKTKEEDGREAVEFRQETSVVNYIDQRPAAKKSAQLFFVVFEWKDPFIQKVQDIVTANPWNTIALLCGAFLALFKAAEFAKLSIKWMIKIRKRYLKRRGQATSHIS

Regarding `Cc1cc(Cl)ccc1OC(C)C(=O)Nc1cc(Cl)ccc1C(=O)O` (stereo not drawn) [LBA, 4-chloro-2-(2-(4-chloro-2-methylphenoxy)propanamido)benzoic acid], the remaining activity at 100 µM in test [1] worked out at 53%.
With `O=C(O)c1ccccc1Nc1cccc(C(F)(F)F)c1` [flufenamic acid], the inhibition (commonly the relative decrease from the control value, in per cent) at 100 µM in test [2] is 28%.
`O=C(O)c1cccnc1Nc1cccc(C(F)(F)F)c1` [niflumic acid]: in test [1], the remaining activity at 100 µM was found to be 38%.
